Test results reported in BindingDB's records for doi:10.1016/0014-2999(89)90363-4 (Novo Industri, 1989).
Where “and” joins values, the source holds several entries; their conditions need not be identical. Equal entries are not always repeated. Structures can show the parent of a compound that is named as a salt.

How the values were obtained:
[1] = biological target: T1, 5-hydroxytryptamine receptor 1A (Rattus norvegicus, UniProt P19327)
T1 sequence (P19327 whole entry): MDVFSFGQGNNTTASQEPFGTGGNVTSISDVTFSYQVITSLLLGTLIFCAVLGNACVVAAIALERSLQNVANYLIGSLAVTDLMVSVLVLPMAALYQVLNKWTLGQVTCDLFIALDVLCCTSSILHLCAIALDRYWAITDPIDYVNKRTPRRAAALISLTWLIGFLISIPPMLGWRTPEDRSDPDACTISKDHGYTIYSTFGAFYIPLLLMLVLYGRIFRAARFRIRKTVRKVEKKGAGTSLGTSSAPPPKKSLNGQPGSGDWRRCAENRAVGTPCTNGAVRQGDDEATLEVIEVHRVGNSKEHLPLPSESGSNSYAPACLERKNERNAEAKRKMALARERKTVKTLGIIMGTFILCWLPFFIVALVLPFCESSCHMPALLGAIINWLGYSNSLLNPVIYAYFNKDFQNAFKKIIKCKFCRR

D(2) dopamine receptor = D(2) dopamine receptor (Rattus norvegicus, UniProt P61169)
Chain of D(2) dopamine receptor (P61169 whole entry): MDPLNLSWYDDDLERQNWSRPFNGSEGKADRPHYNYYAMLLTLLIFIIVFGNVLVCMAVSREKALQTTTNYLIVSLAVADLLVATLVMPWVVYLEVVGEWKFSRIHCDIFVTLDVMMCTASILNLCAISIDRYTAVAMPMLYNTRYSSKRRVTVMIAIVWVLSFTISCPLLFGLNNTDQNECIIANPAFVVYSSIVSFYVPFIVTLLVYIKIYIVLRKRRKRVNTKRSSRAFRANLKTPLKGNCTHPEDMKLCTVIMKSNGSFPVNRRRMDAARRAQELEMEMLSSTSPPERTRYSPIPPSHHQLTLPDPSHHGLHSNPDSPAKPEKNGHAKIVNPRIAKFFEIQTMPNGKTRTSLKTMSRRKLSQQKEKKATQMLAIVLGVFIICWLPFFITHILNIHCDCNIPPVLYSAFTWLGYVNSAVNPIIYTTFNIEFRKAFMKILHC

[2] = biological target: Beta-1 adrenergic receptor (Rattus norvegicus, UniProt P18090)
Chain of Beta-1 adrenergic receptor (P18090 whole entry): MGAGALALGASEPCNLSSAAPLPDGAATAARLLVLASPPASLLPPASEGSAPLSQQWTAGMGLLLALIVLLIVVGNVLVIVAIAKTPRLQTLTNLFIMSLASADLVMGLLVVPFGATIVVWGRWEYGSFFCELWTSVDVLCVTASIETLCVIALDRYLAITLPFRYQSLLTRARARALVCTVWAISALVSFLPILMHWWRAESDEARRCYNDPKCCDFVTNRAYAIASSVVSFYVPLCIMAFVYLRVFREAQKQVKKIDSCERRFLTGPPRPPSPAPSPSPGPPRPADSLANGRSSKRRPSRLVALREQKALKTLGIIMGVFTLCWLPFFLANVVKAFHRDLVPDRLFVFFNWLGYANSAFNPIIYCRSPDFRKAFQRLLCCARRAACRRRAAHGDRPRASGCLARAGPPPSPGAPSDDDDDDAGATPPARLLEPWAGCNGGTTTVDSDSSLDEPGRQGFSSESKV

[3] = biological target: Gamma-aminobutyric acid receptor subunit alpha-1 (Rattus norvegicus, UniProt P62813)
Chain of Gamma-aminobutyric acid receptor subunit alpha-1 (P62813 whole entry): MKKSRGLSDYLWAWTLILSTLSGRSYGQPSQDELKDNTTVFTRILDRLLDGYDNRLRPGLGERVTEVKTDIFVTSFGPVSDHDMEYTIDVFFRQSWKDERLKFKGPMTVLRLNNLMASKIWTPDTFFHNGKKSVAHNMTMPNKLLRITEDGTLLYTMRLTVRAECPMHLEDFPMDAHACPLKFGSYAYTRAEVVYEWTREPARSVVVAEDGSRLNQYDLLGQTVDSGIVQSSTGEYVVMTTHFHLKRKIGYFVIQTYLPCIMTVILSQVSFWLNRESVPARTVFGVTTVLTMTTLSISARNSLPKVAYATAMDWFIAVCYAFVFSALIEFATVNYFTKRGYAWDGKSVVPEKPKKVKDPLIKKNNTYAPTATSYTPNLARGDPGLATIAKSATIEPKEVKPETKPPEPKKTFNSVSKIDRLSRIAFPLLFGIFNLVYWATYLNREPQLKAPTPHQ

[4] = biological target: T2, Alpha-2C adrenergic receptor (Rattus norvegicus, UniProt P22086)
T2 sequence (P22086 whole entry): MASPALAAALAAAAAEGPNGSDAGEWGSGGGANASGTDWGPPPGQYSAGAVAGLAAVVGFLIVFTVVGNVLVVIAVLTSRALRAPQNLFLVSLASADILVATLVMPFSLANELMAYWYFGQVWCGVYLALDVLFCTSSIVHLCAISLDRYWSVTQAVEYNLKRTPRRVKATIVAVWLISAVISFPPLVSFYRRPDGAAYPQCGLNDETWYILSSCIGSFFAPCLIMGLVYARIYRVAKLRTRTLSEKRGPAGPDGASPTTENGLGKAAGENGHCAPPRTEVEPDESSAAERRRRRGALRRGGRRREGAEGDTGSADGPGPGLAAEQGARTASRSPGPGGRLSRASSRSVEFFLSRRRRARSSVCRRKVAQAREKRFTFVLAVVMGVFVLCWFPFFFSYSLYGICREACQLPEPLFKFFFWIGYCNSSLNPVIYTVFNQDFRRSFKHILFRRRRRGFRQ

[5] = biological target: T3, Muscarinic acetylcholine receptor M2 (Rattus norvegicus, UniProt P10980)
T3 sequence (P10980 whole entry): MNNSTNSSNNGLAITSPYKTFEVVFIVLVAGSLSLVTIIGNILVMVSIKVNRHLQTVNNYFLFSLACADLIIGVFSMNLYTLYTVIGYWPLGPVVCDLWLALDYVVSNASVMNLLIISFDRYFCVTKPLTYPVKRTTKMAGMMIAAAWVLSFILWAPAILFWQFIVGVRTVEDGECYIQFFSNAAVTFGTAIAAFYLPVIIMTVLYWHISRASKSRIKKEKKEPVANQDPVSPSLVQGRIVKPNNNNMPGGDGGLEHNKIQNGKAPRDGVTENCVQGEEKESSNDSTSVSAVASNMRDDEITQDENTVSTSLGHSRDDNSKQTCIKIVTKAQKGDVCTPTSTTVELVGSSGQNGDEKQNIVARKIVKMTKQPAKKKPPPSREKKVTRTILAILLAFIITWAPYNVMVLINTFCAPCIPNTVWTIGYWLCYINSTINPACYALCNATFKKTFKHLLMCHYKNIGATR

D(1A) dopamine receptor = D(1A) dopamine receptor (Rattus norvegicus, UniProt P18901)
Chain of D(1A) dopamine receptor (P18901 whole entry): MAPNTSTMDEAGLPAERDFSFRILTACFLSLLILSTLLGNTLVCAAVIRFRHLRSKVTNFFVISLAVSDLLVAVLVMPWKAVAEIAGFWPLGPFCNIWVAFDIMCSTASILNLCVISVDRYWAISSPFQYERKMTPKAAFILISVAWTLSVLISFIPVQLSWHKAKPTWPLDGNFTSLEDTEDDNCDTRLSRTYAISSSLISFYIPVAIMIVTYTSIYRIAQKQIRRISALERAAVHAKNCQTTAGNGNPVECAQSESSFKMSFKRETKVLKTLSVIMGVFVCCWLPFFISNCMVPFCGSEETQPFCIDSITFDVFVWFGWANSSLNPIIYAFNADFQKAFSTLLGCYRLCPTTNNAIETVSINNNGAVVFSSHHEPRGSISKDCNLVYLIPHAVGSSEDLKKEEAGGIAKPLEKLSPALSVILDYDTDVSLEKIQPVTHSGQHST

Histamine H1 receptor = Histamine H1 receptor (Rattus norvegicus, UniProt P31390)
Chain of Histamine H1 receptor (P31390 whole entry): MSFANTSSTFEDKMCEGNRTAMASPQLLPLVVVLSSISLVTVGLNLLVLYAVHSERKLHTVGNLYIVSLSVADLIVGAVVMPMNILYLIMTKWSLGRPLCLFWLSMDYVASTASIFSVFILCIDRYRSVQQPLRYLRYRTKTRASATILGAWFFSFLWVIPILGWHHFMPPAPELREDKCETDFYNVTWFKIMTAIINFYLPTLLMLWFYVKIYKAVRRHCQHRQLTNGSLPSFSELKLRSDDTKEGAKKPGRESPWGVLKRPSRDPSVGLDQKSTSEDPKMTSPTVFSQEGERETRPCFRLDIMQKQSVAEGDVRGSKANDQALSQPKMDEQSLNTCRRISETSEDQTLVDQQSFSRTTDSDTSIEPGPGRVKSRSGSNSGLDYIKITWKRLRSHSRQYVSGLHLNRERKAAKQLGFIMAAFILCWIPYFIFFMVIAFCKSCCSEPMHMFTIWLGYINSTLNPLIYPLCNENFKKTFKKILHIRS

[6] = biological target: Norepinephrine transporter (Rattus norvegicus, UniProt Q9JIA2)
[7] = biological target: Sodium-dependent serotonin transporter (Rattus norvegicus, UniProt P31652)
Chain of Sodium-dependent serotonin transporter (P31652 whole entry): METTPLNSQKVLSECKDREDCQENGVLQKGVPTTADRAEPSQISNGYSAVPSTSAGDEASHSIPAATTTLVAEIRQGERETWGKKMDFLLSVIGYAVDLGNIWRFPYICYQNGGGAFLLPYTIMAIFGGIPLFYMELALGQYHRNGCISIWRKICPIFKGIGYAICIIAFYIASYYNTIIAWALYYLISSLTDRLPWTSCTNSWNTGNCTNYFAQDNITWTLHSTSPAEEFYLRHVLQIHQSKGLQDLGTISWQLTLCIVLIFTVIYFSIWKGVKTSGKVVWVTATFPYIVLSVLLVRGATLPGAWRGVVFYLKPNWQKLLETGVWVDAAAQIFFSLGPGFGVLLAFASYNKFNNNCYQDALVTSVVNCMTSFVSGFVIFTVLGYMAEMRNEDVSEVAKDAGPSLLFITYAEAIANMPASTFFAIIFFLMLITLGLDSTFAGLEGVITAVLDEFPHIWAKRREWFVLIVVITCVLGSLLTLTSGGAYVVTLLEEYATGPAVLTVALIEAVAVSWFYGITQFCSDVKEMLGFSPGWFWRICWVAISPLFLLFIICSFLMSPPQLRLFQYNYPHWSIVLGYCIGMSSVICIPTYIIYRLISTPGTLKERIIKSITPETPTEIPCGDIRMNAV

[8] = biological target: T4, Alpha-1A adrenergic receptor (Rattus norvegicus, UniProt P43140)
T4 sequence (P43140 whole entry): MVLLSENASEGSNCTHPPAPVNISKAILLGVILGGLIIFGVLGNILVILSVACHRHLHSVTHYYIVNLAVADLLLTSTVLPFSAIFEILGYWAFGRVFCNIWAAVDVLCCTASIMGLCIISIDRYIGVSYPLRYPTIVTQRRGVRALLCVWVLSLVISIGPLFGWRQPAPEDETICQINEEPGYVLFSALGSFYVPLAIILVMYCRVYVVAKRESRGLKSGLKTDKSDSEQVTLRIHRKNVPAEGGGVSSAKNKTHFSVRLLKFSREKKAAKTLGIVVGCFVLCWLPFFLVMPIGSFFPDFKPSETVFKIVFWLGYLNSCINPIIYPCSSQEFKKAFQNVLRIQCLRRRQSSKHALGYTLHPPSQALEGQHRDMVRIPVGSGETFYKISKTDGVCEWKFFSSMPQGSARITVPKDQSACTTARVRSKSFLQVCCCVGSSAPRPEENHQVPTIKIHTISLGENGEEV

[9] = biological target: 5-hydroxytryptamine receptor 2A (Rattus norvegicus, UniProt P14842)
Chain of 5-hydroxytryptamine receptor 2A (P14842 whole entry): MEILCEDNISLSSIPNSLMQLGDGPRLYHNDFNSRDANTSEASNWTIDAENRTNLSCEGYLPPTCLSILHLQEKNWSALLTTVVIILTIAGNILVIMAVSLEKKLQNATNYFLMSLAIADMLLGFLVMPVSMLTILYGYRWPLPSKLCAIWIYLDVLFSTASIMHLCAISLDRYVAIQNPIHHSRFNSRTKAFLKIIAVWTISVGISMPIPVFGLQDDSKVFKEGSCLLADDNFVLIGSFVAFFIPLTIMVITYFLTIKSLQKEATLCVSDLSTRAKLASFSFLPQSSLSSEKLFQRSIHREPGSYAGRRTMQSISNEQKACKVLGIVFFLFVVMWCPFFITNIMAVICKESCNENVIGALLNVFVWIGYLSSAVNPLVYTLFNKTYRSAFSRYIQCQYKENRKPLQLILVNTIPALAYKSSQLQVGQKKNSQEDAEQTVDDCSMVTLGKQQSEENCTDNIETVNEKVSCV

| Compound | Ki [1] | Ki (D(2) dopamine receptor) | Ki [2] | Ki [3] | Ki [4] | Ki [5] | Ki (D(1A) dopamine receptor) | Ki (Histamine H1 receptor) | Ki [6] | Ki [7] | Ki [8] | Ki [9] |
| --- | --- | --- | --- | --- | --- | --- | --- | --- | --- | --- | --- | --- |
| CN(C)CCCN1c2ccccc2CCc2ccccc21 | > 10000 nM | 942 nM | > 10000 nM | > 10000 nM | 5700 nM | 2300 nM | 3000 nM | 2 nM |  |  |  |  |
| COc1ccc2c(c1)CN(C)CC2c1ccc(Cl)c(Cl)c1 (stereo not drawn) |  |  |  |  |  |  |  |  | 15.7 nM |  |  |  |
| COC(=O)[C@@H](c1ccccc1)[C@@H]1CCCCN1 |  |  |  |  |  |  |  |  | 103 nM | 1000 nM |  |  |
| NCCc1ccc(O)c(O)c1 |  |  |  |  |  |  |  |  | 1000 nM | 1000 nM |  |  |
| CN1Cc2c(N)cccc2[C@H](c2ccccc2)C1 [(+/-)-2-Methyl-4-phenyl-1,2,3,4-tetrahydro-isoquinolin-8-ylamine] | > 10000 nM | > 10000 nM | > 10000 nM | > 10000 nM | > 10000 nM | > 10000 nM | > 10000 nM | 35 nM | 11.2 nM |  | > 10000 nM |  |
| CC(NC(C)(C)C)C(=O)c1cccc(Cl)c1 (stereo not drawn) [BUPROPION HYDROCHLORIDE] |  | > 10000 nM | > 10000 nM |  | > 10000 nM | > 10000 nM | > 10000 nM |  | 940 nM |  | > 10000 nM |  |
| CN(C)CCCC1(c2ccc(F)cc2)OCc2cc(C#N)ccc21 (stereo not drawn) [CITALOPRAM HYDROBROMIDE] | > 10000 nM | > 10000 nM | > 10000 nM | > 10000 nM | > 10000 nM | > 10000 nM | > 10000 nM |  |  |  | > 10000 nM |  |
| O[C@]1(c2ccc(Cl)cc2)c2ccccc2C2=NCCN21 [Mazanor] |  |  |  |  |  |  |  |  | 8 nM |  |  |  |
| NCC(O)c1ccc(O)c(O)c1 (stereo not drawn) [Noradrenaline,(+)] |  |  |  |  |  |  |  |  | 250 nM | 1000 nM |  |  |
| Fc1ccc(C(OCCN2CCN(CCCc3ccccc3)CC2)c2ccc(F)cc2)cc1 [Vanoxerine] | 3600 nM | 270 nM | > 10000 nM | > 10000 nM and 8000 nM | 7000 nM | > 10000 nM | 1000 nM | 18 nM |  |  | 3500 nM | 189 nM |
| NCCc1c[nH]c2ccc(O)cc12 [[3H]-5-HT] |  |  |  |  |  |  |  |  | 1000 nM |  |  |  |
| C[C@H](N)Cc1ccccc1 [beta-aminopropylbenzene] |  |  |  |  |  |  |  |  | 59 nM and 58 nM |  |  |  |
